In patent US9463252B2, “Auristatin drug linker conjugates” (priority 2008, dated 2016):

Key:
HCT-116 (CD70−) = test: Cytotoxicity of Auristatin-Peptide-h1F6 conjugates, CD70- control cell line; format: cell-based
Excerpt: (§1) The conjugates contain approximately 4 drugs per antibody.

[1] = tested on: CD70+ positive cell lines; details: h1F6 conjugates, ~4 drugs/Ab
Protocol: Cytotoxicity assays are usually carried out for 96 hours after addition of test compounds. Fifty μl of resazurin dye may be added to each well during the last 4 to 6 hours of the incubation to assess viable cells at the end of culture. Dye reduction can be determined by fluorescence spectrometry using the excitation and emission wavelengths of 535 nm and 590 nm, respectively. For analysis, the extent of resazurin reduction by the treated cells can be compared to that of the untreated control cells.

[2] = tested on: 786-O (renal cell) xenografts; details: mouse, ip
Protocol: The efficacy of AF-Dipeptide-h1F6 conjugates were evaluated in 786-O (renal cell) xenografts. AF-Dipeptide-h1F6 conjugates with an average of 4 drug moieties per antibody were used. 786-O cells were implanted subcutaneously into immunodeficient mice (5×10^6 cells per mouse). Tumor volumes are calculated using the formula (0.5×L×W^2) where L and W are the longer and shorter of two bidirectional measurements.
In a second study, the efficacies of additional Auristatin-Dipeptide-h1F6 conjugates were evaluated in 786-O (renal cell) xenografts. Auristatin-Dipeptide-h1F6 conjugates with an average of 4 drug moieties per antibody were used. 786-O cells were implanted subcutaneously into immunodeficient mice (5×10^6 cells per mouse). Tumor volumes are calculated using the formula (0.5×L×W^2), where L and W are the longer and shorter of two bidirectional measurements.

U251 = test: Cytotoxicity of Auristatin-Peptide-h1F6 conjugates, resazurin assay; format: cell-based; details: Table 4, ~4 drugs/Ab
Excerpt: as §1

Caki-1 = test: as above; format: cell-based
Excerpt: as §1

L428 [3] = test: as above; format: cell-based
Excerpt: as §1

Caki-2 = test: as above; format: cell-based
Protocol: as §1
Following the procedure described as Examples 57 and 58, Auristatin-Peptide-h1F6 conjugates were evaluated on CD70^+ cell, such as 786-O, Caki-1, Caki-2, and L428. Conjugates contain approximately 4 drugs per antibody.

[4] = tested on: DoHH-2 follicular B-cell lymphoma subcutaneous model; test: In vivo efficacy of hBU12 conjugates in lymphoma xenograft model; parameters: species or system mouse; details: FIG. 16, q4d×4 at 3 mg/kg, SCID mice
Protocol: The efficacies of Auristatin-Dipeptide hBU12 conjugates with the aryl and alkyl-maleimide Stretcher units were evaluated in a DoHH-2 follicular B-cell lymphoma subcutaneous model. Auristatin-Dipeptide-hBU12 conjugates with average of 4 drug moieties per antibody were used. DoHH-2 cells were implanted subcutaneously into immunodeficient SCID mice (5×10^6 cells per mouse). […] Treatment was initiated when average size of tumors reached 100 mm^3; the treatment schedule was q4d×4 at 3 mg/kg.

L540cy = test: Cytotoxicity of Auristatin-Peptide-cAC10 conjugates on CD30+ cells; format: cell-based, human; details: Table 11, ~4 drugs per antibody
Protocol: (§2) Following the procedure described in Example 57, Auristatin-Dipeptide-cAC10 antibody conjugates were evaluated on CD30+ positive cell lines, Karpas 299, L428 and L540cy. In addition, a control conjugate, cAC10-vc-PABC-MMAF, was used. […] The conjugates contain approximately 4 drugs per antibody.
(§3) Following the procedure described as Examples 57 and 58, the activities of Auristatin-Peptide-cAC10 conjugates were evaluated on CD30^+ cells, such as Karpas 299, L428, and L540cy. The activities of Auristatin-Peptide-hBU12 conjugates were evaluated on CD19^+ cells such as Ramos, SUDHL-4, and ARH-77. The activities of Auristatin-Peptide-anti-LIV-1 conjugates were evaluated on LIV-1 positive cell lines MCF-7 and SKOV-3. The activities of Auristatin-Peptide-BR96 conjugates were evaluated on Le^y positive cells H3396, RCA, and L2987. All conjugates contain approximately 4 drugs per antibody.

Karpas 299 = test: as above; format: cell-based, human; details: Table 11, ~4 drugs per antibody
Protocol: as §2, §3

L2987 = test: Cytotoxicity of Auristatin-Peptide-BR96 conjugates on Le^y positive cells; format: cell-based; details: Table 11, ~4 drugs per antibody
Protocol: as §3

RCA = test: as above; format: cell-based; details: Table 11, ~4 drugs per antibody
Protocol: as §3

H3396 = test: as above; format: cell-based; details: Table 11, ~4 drugs per antibody
Protocol: as §3

786-O = test: Cytotoxicity of Auristatin-Peptide-h1F6 conjugates, resazurin assay; format: cell-based, human
Excerpt: as §1

[5] = tested on: L540cy Hodgkin's lymphoma subcutaneous model; test: In vivo efficacy of cAC10 conjugates in lymphoma xenograft model; parameters: species or system mouse; details: FIG. 17, q4d×3 at 1 mg/kg, SCID mice
Protocol: The efficacy of selected Auristatin-Dipeptide-cAC10 conjugates having Stretcher units with aryl or alkyl maleimides were evaluated in L540cy Hodgkin's lymphoma subcutaneous model. Auristatin-Dipeptide-cAC10 conjugates with average of 4 drug moieties per antibody were used. L540cy cells were implanted subcutaneously into immunodeficient SCID mice (5×10^6 cells per mouse). […] Treatment was initiated when average size of tumors reached 100 mm^3. The treatment schedule was q4d×3 at 1 mg/kg.

MCF-7 = test: Cytotoxicity of Auristatin-Peptide-anti-LIV-1 conjugates on LIV-1 positive cells; format: cell-based; details: Table 11, ~4 drugs per antibody
Protocol: as §3

SKOV-3 = test: as above; format: cell-based; details: Table 11, ~4 drugs per antibody
Protocol: as §3

Ramos = test: Cytotoxicity of Auristatin-Peptide-hBU12 conjugates on CD19+ cells; format: cell-based; details: Table 11, ~4 drugs per antibody
Protocol: as §3

SUDHL-4 = test: as above; format: cell-based; details: Table 11, ~4 drugs per antibody
Protocol: as §3

ARH-77 = test: as above; format: cell-based; details: Table 11, ~4 drugs per antibody
Protocol: as §3

L428 [6] = test: Cytotoxicity of Auristatin-Peptide-cAC10 conjugates on CD30+ cells; format: cell-based; details: Table 11, ~4 drugs per antibody
Protocol: as §2, §3

[7] = tested on: CD30+, CD19+, LIV-1 positive and Le^y positive cells; test: In vitro activity of conjugates with cAC10, hBU12, anti-LIV-1 and BR96, overall statements; format: cell-based; details: conjugates with cAC10, hBU12, Anti-LIV-1, BR96; Table 11
Protocol: as §3

[8] = Table 4, h1F6 conjugates, ~4 drugs/Ab
[9] = Table 5, h1F6 conjugates, ~4 drugs/Ab
[10] = Table 10, h1F6-Drug(4) conjugates, aryl or alkyl maleimides

AF-Proline-(D)Lysine-diaminoethane-propionyl maleimide [AF-Pro-(D)Lys]
IC50 HCT-116 (CD70−) (HCT-116 (CD70−); Table 4, ~4 drugs/Ab): >1 µg/mL | in vitro activity on CD70+ cells (in words) [1]: largely inactive | in vivo efficacy, tumor volume (in words) [2]: inactive | IC50 U251 (U251): 5.012 µg/mL | IC50 Caki-1 (Caki-1; [8]): >10,000 ng/mL | IC50 L428 (L428 [3]; [8]): >10,000 ng/mL

AM-Asparagine-(D)Lysine-diaminoethane-propionyl maleimide [AM-Asn-(D)Lys]
IC50 Caki-2 (Caki-2; [9]): 0.047 µg/mL | IC50 Caki-2 (Caki-2; [10]): 0.026 µg/mL | IC50 HCT-116 (CD70−) (HCT-116 (CD70−); Table 5, ~4 drugs/Ab): >1 µg/mL | in vivo efficacy, tumor volume (in words) [4]: more potent than corresponding AW-Met-(D)Lys conjugates | IC50 L540cy (L540cy): 0.031 µg/mL | IC50 Karpas 299 (Karpas 299): 0.011 µg/mL | IC50 L2987 (L2987): 0.506 µg/mL | IC50 RCA (RCA): 8.362 µg/mL | IC50 H3396 (H3396): 0.037 µg/mL | IC50 786-O (786-O; [9]): 0.02 µg/mL | IC50 786-O (786-O; [10]): 0.018 µg/mL | in vivo efficacy, tumor volume (in words) [5]: more potent than corresponding AW-Met-(D)Lys conjugates | IC50 MCF-7 (MCF-7): 24 ng/mL | IC50 SKOV-3 (SKOV-3): 7600 ng/mL | IC50 Ramos (Ramos): 1 ng/mL | IC50 SUDHL-4 (SUDHL-4): >10,000 ng/mL | IC50 ARH-77 (ARH-77): 49 ng/mL | IC50 L428 (L428 [6]): 0.6 ng/mL | IC50 Caki-1 (Caki-1; [9]): 20 ng/mL | IC50 Caki-1 (Caki-1; [10]): 16 ng/mL | IC50 L428 (L428 [3]; [9]): 26 ng/mL | IC50 L428 (L428 [3]; [10]): 29 ng/mL

AW-Methionine-(D)Lysine-diaminoethane-propionyl maleimide [AW-Met-(D)Lys]
IC50 Caki-2 (Caki-2; [9]): 0.037 µg/mL | IC50 Caki-2 (Caki-2; [10]): 0.018 µg/mL | IC50 HCT-116 (CD70−) (HCT-116 (CD70−); Table 5, ~4 drugs/Ab): >1 µg/mL | IC50 L540cy (L540cy): 0.017 µg/mL | IC50 Karpas 299 (Karpas 299): 0.011 µg/mL | IC50 L2987 (L2987): 0.422 µg/mL | IC50 RCA (RCA): 5.217 µg/mL | IC50 H3396 (H3396): 0.146 µg/mL | in vitro potency (in words) [7]: less active | IC50 786-O (786-O; [9]): 0.02 µg/mL | IC50 786-O (786-O; [10]): 0.017 µg/mL | IC50 MCF-7 (MCF-7): >10,000 ng/mL | IC50 SKOV-3 (SKOV-3): >10,000 ng/mL | IC50 Ramos (Ramos): >10,000 ng/mL | IC50 SUDHL-4 (SUDHL-4): >10,000 ng/mL | IC50 ARH-77 (ARH-77): >10,000 ng/mL | IC50 L428 (L428 [6]): ~10,000 ng/mL | IC50 Caki-1 (Caki-1; [9]): 22 ng/mL | IC50 Caki-1 (Caki-1; [10]): 19 ng/mL | IC50 L428 (L428 [3]; [9]): >1000 ng/mL | IC50 L428 (L428 [3]; [10]): >1000 ng/mL
